These are literature values, as cited in patent publication US4127525A, “Novel tridecapeptides, intermediates therefor, and compositions and methods employing said tridecapeptides” (priority 1977, dated 1978).

One data set deals with rat. The following applies: injected directly into the brain of the rat.
Data set [1] deals with partially purified brain opiate receptor sites. The following applies: natural peptide.

For the substance “H-Tyr-Gly-Gly-Phe-Met-OH [methionine enkephalin]”, in the data set on rat, the analgesic activity entry was “only weak analgesic agent of short duration”. Also, the “binding to partially purified brain opiate receptor sites” value in data set [1] is recorded as “binds stereo-specifically”.
